Measurements as given in the NIST ThermoML archive (doi:10.1016/j.tca.2009.03.005).

Columns and labels:
[1] = Molar enthalpy of transition or fusion; conditions: Crystal 2; DSC
[2] = molar heat capacity at constant pressure; conditions: 101.33 kPa
[3] = DTA

O=N[O-].[Na+] [sodium nitrite]
Conditions | Molar enthalpy of transition or fusion [kJ/mol]
[1] | 13.9

[2]
Conditions | molar heat capacity at constant pressure [J/K/mol]
273.15 K, Crystal 3, Small sample (50 mg) DSC | 85.2
278.15 K, Crystal 3, Small sample (50 mg) DSC | 85.3
283.15 K, Crystal 3, Small sample (50 mg) DSC | 86
288.15 K, Crystal 3, Small sample (50 mg) DSC | 86.6
293.15 K, Crystal 3, Small sample (50 mg) DSC | 87.3
298.15 K, Crystal 3, Small sample (50 mg) DSC | 88.1
303.15 K, Crystal 3, Large sample (1 g) DSC | 85.3
303.15 K, Crystal 3, Small sample (50 mg) DSC | 88.8
308.15 K, Crystal 3, Small sample (50 mg) DSC | 90.1
313.15 K, Crystal 3, Small sample (50 mg) DSC | 90.8
318.15 K, Crystal 3, Small sample (50 mg) DSC | 91.8
323.15 K, Crystal 3, Large sample (1 g) DSC | 89.3
323.15 K, Crystal 3, Small sample (50 mg) DSC | 92.8
328.15 K, Crystal 3, Small sample (50 mg) DSC | 94
333.15 K, Crystal 3, Small sample (50 mg) DSC | 95.3
338.15 K, Crystal 3, Small sample (50 mg) DSC | 96.7
343.15 K, Crystal 3, Large sample (1 g) DSC | 94.1
343.15 K, Crystal 3, Small sample (50 mg) DSC | 98
348.15 K, Crystal 3, Small sample (50 mg) DSC | 99.8
353.15 K, Crystal 3, Small sample (50 mg) DSC | 101.3
358.15 K, Crystal 3, Small sample (50 mg) DSC | 102.5
363.15 K, Crystal 3, Large sample (1 g) DSC | 99.9
363.15 K, Crystal 3, Small sample (50 mg) DSC | 103.5
368.15 K, Crystal 3, Small sample (50 mg) DSC | 106.2
373.15 K, Crystal 3, Small sample (50 mg) DSC | 108.2
378.15 K, Crystal 3, Small sample (50 mg) DSC | 109.9
383.15 K, Crystal 3, Large sample (1 g) DSC | 107.8
383.15 K, Crystal 3, Small sample (50 mg) DSC | 111.6
388.15 K, Crystal 3, Small sample (50 mg) DSC | 115.3
393.15 K, Crystal 3, Small sample (50 mg) DSC | 118.2
398.15 K, Crystal 3, Small sample (50 mg) DSC | 121.5
403.15 K, Crystal 3, Large sample (1 g) DSC | 119.3
403.15 K, Crystal 3, Small sample (50 mg) DSC | 124.4
408.15 K, Crystal 3, Small sample (50 mg) DSC | 130
413.15 K, Crystal 3, Small sample (50 mg) DSC | 135.6
418.15 K, Crystal 3, Small sample (50 mg) DSC | 142.7
419.15 K, Crystal 3, Small sample (50 mg) DSC | 144.39
420.15 K, Crystal 3, Small sample (50 mg) DSC | 146.16
421.15 K, Crystal 3, Small sample (50 mg) DSC | 148.05
422.15 K, Crystal 3, Small sample (50 mg) DSC | 150.11
423.15 K, Crystal 3, Small sample (50 mg) DSC | 152.4
424.15 K, Crystal 3, Small sample (50 mg) DSC | 154.72
425.15 K, Crystal 3, Small sample (50 mg) DSC | 157.33
426.15 K, Crystal 3, Small sample (50 mg) DSC | 160.25
427.15 K, Crystal 3, Small sample (50 mg) DSC | 163.31
428.15 K, Crystal 3, Small sample (50 mg) DSC | 166.7
429.15 K, Crystal 3, Small sample (50 mg) DSC | 170.6
430.15 K, Crystal 3, Small sample (50 mg) DSC | 175.1
431.15 K, Crystal 3, Small sample (50 mg) DSC | 180.4
437.25 K, Crystal 2, Small sample (50 mg) DSC | 215.4
437.35 K, Crystal 2, Small sample (50 mg) DSC | 213.7
437.45 K, Crystal 2, Small sample (50 mg) DSC | 213.5
437.55 K, Crystal 2, Small sample (50 mg) DSC | 213.7
437.75 K, Crystal 2, Small sample (50 mg) DSC | 215.5
437.85 K, Crystal 2, Small sample (50 mg) DSC | 217.1
437.95 K, Crystal 2, Small sample (50 mg) DSC | 220.4
438.05 K, Crystal 2, Small sample (50 mg) DSC | 223.4
438.15 K, Crystal 2, Small sample (50 mg) DSC | 223.6
468.15 K, Crystal 1, Small sample (50 mg) DSC | 129
473.15 K, Crystal 1, Small sample (50 mg) DSC | 129.8
478.15 K, Crystal 1, Small sample (50 mg) DSC | 130.8
483.15 K, Crystal 1, Large sample (1 g) DSC | 131.6
483.15 K, Crystal 1, Small sample (50 mg) DSC | 131.9
488.15 K, Crystal 1, Small sample (50 mg) DSC | 133.2
493.15 K, Crystal 1, Small sample (50 mg) DSC | 134.7
498.15 K, Crystal 1, Small sample (50 mg) DSC | 136
503.15 K, Crystal 1, Large sample (1 g) DSC | 138.7
503.15 K, Crystal 1, Small sample (50 mg) DSC | 137.8
508.15 K, Crystal 1, Small sample (50 mg) DSC | 140
513.15 K, Crystal 1, Small sample (50 mg) DSC | 142.4
518.15 K, Crystal 1, Small sample (50 mg) DSC | 145.2
521.15 K, Crystal 1, Small sample (50 mg) DSC | 147.7
522.15 K, Crystal 1, Small sample (50 mg) DSC | 148.5
523.15 K, Crystal 1, Large sample (1 g) DSC | 148.8
523.15 K, Crystal 1, Small sample (50 mg) DSC | 148.9
524.15 K, Crystal 1, Small sample (50 mg) DSC | 149.8
525.15 K, Crystal 1, Small sample (50 mg) DSC | 150.9
526.15 K, Crystal 1, Small sample (50 mg) DSC | 152
527.15 K, Crystal 1, Small sample (50 mg) DSC | 153
528.15 K, Crystal 1, Small sample (50 mg) DSC | 153.2
529.15 K, Crystal 1, Small sample (50 mg) DSC | 155
530.15 K, Crystal 1, Small sample (50 mg) DSC | 156
531.15 K, Crystal 1, Small sample (50 mg) DSC | 157.5
532.15 K, Crystal 1, Small sample (50 mg) DSC | 158.7
533.15 K, Crystal 1, Large sample (1 g) DSC | 161.2
533.15 K, Crystal 1, Small sample (50 mg) DSC | 160.2
534.15 K, Crystal 1, Small sample (50 mg) DSC | 161.8
535.15 K, Crystal 1, Small sample (50 mg) DSC | 163.1
536.15 K, Crystal 1, Small sample (50 mg) DSC | 165.7
537.15 K, Crystal 1, Small sample (50 mg) DSC | 168
538.15 K, Crystal 1, Small sample (50 mg) DSC | 169.8
539.15 K, Crystal 1, Small sample (50 mg) DSC | 173.2
540.15 K, Crystal 1, Small sample (50 mg) DSC | 176.4

[2], Liquid, Small sample (50 mg) DSC
Conditions | molar heat capacity at constant pressure [J/K/mol]
562.15 K | 116.8
563.15 K | 110
564.15 K | 110.2
565.15 K | 109.9
566.15 K | 110.2
568.15 K | 110.9
573.15 K | 111.9
578.15 K | 112.3
583.15 K | 112.6

[3]
Conditions | Normal melting temperature [°C] | Triple point temperature [K]
Crystal 1 | 280.1 | –
Crystal 2 | – | 438.7
Crystal 3 | – | 437.2
